Measured values reported in US20240115545A1, “PHARMACEUTICAL COMPOSITION CONTAINING B-LAPACHONE AS ACTIVE INGREDIENT FOR PREVENTION OR TREATMENT OF CHOLESTATIC LIVER DISEASE” (CUROME BIOSCIENCES CO., LTD., priority 2020, published 2024).

Columns and labels:
[1] = test system: DDC-induced cholestatic liver disease mice; assay: H&E histology of portal vein and bile duct lesions, preventive β-lapachone in DDC-induced cholestatic liver disease mice; assay type: in vivo
Method: DDC-induced cholestatic liver disease mouse animal models were prepared according to the method of Elisa Pose et al. by using 8-week-old C57BL/6 male mice (Samtako, Korea). Briefly, cholestatic liver disease was induced by feeding a standard rodent diet supplemented with 0.1% (w/w) DDC for 7 or 14 days. The 12-hour light and dark cycle was maintained and animals were allowed to free access to water. The standard rodent diet included medium wheat, wheat, corn, and corn gluten flour, and soybean oil (14% protein). All animal related procedures were reviewed and approved by the Institutional Animal Care and Use Committee of Korea Research Institute of Bioscience and Biotechnology (KRIBB), KRIBB-AEC-20165). The tissue staining of the cholestatic liver disease animal models was measured through H&E staining (basic tissue staining), Sirius Red staining (collagen staining), and Masson's trichrome staining (collagen, cytoplasm, muscle fibers, etc.), and the tissue staining was measured by a skilled researcher. After the mice were fed a diet containing 0.1% DDC for 14 days, tissue staining was performed for inflammation, fibrosis, and adhesion molecules around the portal vein, and the results are shown in FIG. 1. […]

[2] = test system: inflammation-related genes; assay: mRNA levels of inflammatory cytokine genes in liver tissue (Example 3.3); assay type: in vivo, mice; details: β-lapachone with DDC in diet, 7 days
Method: After 8-week-old C57BL/6 male mice (Samtako, Korea) were divided into each group (=6), the mice were fed a diet with normal (vehicle), control (DDC), DDC+β-lapachone 20 mg/kg, DDC+β-lapachone 40 mg/kg, DDC+β-lapachone 80 mg/kg, DDC+β-lapachone 100 mg/kg, and positive control DDC+ursodeoxycholic acid 100 mg/kg, and DDC+obeticholic acid 30 mg/kg (total 7 days). After 7 days of treatment, the mice were sacrificed and then the blood was collected from the heart. Thereafter, the levels of alanine aminotransferase (ALT), aspartate aminotransferase (AST), alkaline phosphatase (ALP), and bilirubin, which are blood indexes, were analyzed, and shown in FIG. 4.
In the cholestatic liver disease, the inflammation in the portal vein and damage to the bile ducts in the liver occur chronically, resulting in cholestasis and liver fibrosis. The mRNA levels of inflammatory cytokine genes in the liver tissue of the cholestatic liver disease mouse animal models obtained by the same method as in Example 3.1 were measured, and shown in FIG. 6.

[3] = test system: macrophage line Raw264.7; assay: IL-1β and TNF-α release (ELISA) from LPS and ATP treated Raw264.7 macrophages; assay type: cell-based; details: Raw264.7, LPS 100 ng/ml, 0.2, 0.5, 1, 2 μM β-lapachone 24 hours, ATP 2.5 mM 30 minutes
Method: The macrophage line Raw264.7 (ATCC TIB-71, Manassas, VA, USA) was subcultured in DMEM supplemented with 10% FBS and 1% penicillin/streptomycin.
For inflammation induction, RAW264.7 cells were suspended in DMEM containing 2% FBS, inoculated in a 12-well plate to a cell number of 4×10^5/ml, and incubated in 5% CO2 incubator at 37° C. for 24 hours. With replacement with fresh media, the cells were treated with appropriate concentrations of a corresponding substance, LPS (100 ng/ml), and 0.2, 0.5, 1, and 2 μM β-lapachone, cultured for 24 hours, treated with ATP (2.5 mM), and then cultured for additional 30 minutes, and the supernatant was collected. The release of cytokines (IL-1β and TNF-α) of RaW264.7 macrophages was quantified using each cell-free supernatant-ELISA set (Invitrogen, Billerica, MA, USA) by Invitrogen according to the manufacture's instruction, and is shown in FIG. 14.

## CC1(C)CCC2=C(O1)c1ccccc1C(=O)C2=O [β-lapachone]
[1]; 80 mg/kg (BL80) compared with 40 mg/kg (BL40)
  concentration dependence of lesion reduction of portal vein and bile ducts (H&E): reduced the lesions of the DDC-treated portal vein and bile ducts depending on the concentration thereof
[1]; DDC-BL40 and DDC-BL80 (40 and 80 mg/kg in diet from 3 days before DDC, total 17 days; DDC 14 days) vs DDC-vehicle
  lesions around the portal vein (PV) and bile ducts (H&E): significant lesion reductions
[2]
  transcriptional level of IL-1β in liver: inhibited
  transcriptional level of TNFα in liver: inhibited
[3]
  expression level of IL-1β protein increased by LPS and ATP: reduced depending on the concentration
  expression level of TNF-α protein increased by LPS and ATP: reduced depending on the concentration
